The test system of test [1] is human subjects. The test is described as follows: Human olfactory psychophysics: intensity rating by OR7D4 genotype. It is filed as in vivo. To be noted: for intensity rating, OR7D4 RT/WM vs RT/RT subjects: 7-point scale, two concentrations pooled, N=100 RT/WM, N=255 RT/RT; for intensity rating, RT/S84N subjects vs RT/RT controls: N=7 RT/S84N; for reduction in odor intensity, OR7D4 WM/WM subjects: N=10 WM/WM, compared with RT/WM; for intensity rating, RT/P79L subjects vs RT/RT controls: N=30 RT/P79L. As for the experimental part: (§1) Human olfactory psychophysics. All human subjects gave informed consent to participate in this study and were tested in a well-ventilated room. Normal human subjects (n=412; 218 female, 194 male; median age 34, age range 19-75) were pre-screened to exclude pregnant women and those with medical conditions causing general impairment of the sense of smell. All subjects completed two replicates of the test separated by at least 4 days. Odors were presented in amber vials as previously described (see, e.g., Keller, A., et al., Nat Neurosci 7, 337-338 (2004); herein incorporated by reference in its entirety) using bar-coded symbols to ensure that subjects were blind to the identity of all odors. The intensity and valence of 66 odors at two concentrations (“high” and “low”) and two solvents was rated using a 7-point scale. Thresholds were calculated using the single staircase method with seven reversals (see, e.g., Doty, R. L., et al., Chem Senses 20, 645-656 (1995); Doty, R. L. & Laing, D. G. in Handbook of Olfaction and Gustation (ed. Doty, R. L.) pp. 203-228 (Marcel Dekker, Inc., New York, 2003); each of which are herein incorporated by reference in their entireties). Threshold tests included both steroids as binary dilutions from […] (binary dilution 6) to 1: 134,217,728 (binary dilution 27). Subjects who could not reliably distinguish a 1:64 dilution of androstenone and androstadienone from solvent were operationally defined as anosmic to these odorous steroids, although it could not be excluded that these subjects could detect higher concentrations of these steroids (see, e.g., Bremner, E. A., et al., Chem Senses 28, 423-432 (2003); herein incorporated by reference in its entirety). Odor profiling used the method established by Dravnieks, et al. (see, e.g., Dravnieks, A., et al., Science 218, 799-801 (1982); herein incorporated by reference in its entirety).
Stimuli for olfactory psychophysics. All odors were presented as one ml of an odor dilution in either propylene glycol or paraffin oil in 20 ml amber glass vials. All of these compounds were used in the intensity and valence rating portion of the smell test.
Olfactory ratings. The intensity and valence of 66 odors were rated at two different concentrations (high and low) and the intensity and valence of the two solvents (paraffin oil and propylene glycol) was rated three times. Prior to these ratings, six stimuli that represented the spectrum of intensity and valence of the stimuli used in the study were presented to allow the subjects to calibrate the usage of the scale. The subjects were unaware that the six first stimuli served that purpose. After the rating of the 66 odors at two concentrations and the rating of the solvents, 15 stimuli that were presented earlier in the experiment were repeated to test for the effect of adaptation and olfactory fatigue on the ratings. The subjects were not aware that the last 15 stimuli served this purpose. These 15 stimuli and the six first stimuli were not included in the analysis presented here. […] The 15 control stimuli and their concentrations were as follows:
In addition there was a button on the screen labeled “I can't smell anything” and a button labeled “Don't Know”. If the “Don't Know” button was pressed, no rating was recorded. If the “I can't smell anything” button was pressed, a 0 was recorded for the intensity rating and no rating was recorded for the valence rating. The other ratings were transformed according to the following scheme:
• Extremely Weak=1 • Very Weak=2 • Slightly Weak=3 • Neither Weak nor Strong=4 • Slightly Strong=5 • Very Strong=6 • Extremely Strong=7 Valence Rating • Extremely Unpleasant=1 • Very Unpleasant=2 • Slightly Unpleasant=3 • Neither Unpleasant nor Pleasant=4 • Slightly Pleasant=5 • Very Pleasant=6 • Extremely Pleasant=7
Averages for the ratings of the different genotypes were calculated. […]

Test [2] has as its system human subjects. The test can be described thus: Human olfactory psychophysics: detection thresholds (single staircase method). It is filed as in vivo. To be noted: for detection threshold, RT/S84N subjects vs RT/RT controls: N=3 RT/S84N; for detection threshold, RT/P79L subjects vs RT/RT subjects: N=12 RT/P79L; for detection threshold, OR7D4 RT/WM vs RT/RT subjects: binary dilutions in propylene glycol, N=49 RT/WM, N=47 RT/RT. Here is the method: as §1
For the descriptors task, the following odors and concentrations were used: propylene glcol (pure), pentadecalactone 1/500, vanillin 1/200, and androstenone 1/10,000. The following odors were used for thresholding: adrostenone and androstadienone. These were tested at an initial concentration of binary dilution 27 […] in propylene glycol and moved from there in binary steps. The range of dilutions tested was from binary dilution 27 (1:134,217,728) to binary dilution 6 (1:64). Odor vials used for intensity and valence ratings and the assigning of descriptors to odors were used for 40 sessions and then replaced by a new set. Master stocks of each odor were established at the beginning of the study to avoid intertrial variability in odor concentrations.
Threasholding. Detection thresholds (FIG. 3c and FIG. 5b-c) were determined using the “Single Staircase Threshold Detection Method” (see, e.g., Buck, L., et al., Cell 65, 175-187 (1991); Menashe, I., et al., Nat Genet. 34, 143-144 (2003); each of which are herein incorporated by reference in their entireties). This method produced very accurate data on the threshold concentration of a given dour and was easy to administer and for the subjects to perform. The thresholds for each subject on two occasions was tested at least four days apart. This helped to control for inter-trial variability in olfactory performance. The average difference between the thresholds determined on the two days was three binary dilution steps for andmstenone and five for androstadienone.
A custom computer-controlled thresholding test was administered as a self-test to each subject. Briefly, subjects were instructed to sniff two vials, one containing the solvent, the other a dilution of the odorant. Both vials have barcode labels and the procedure was done at a computer equipped with a scanner. Subjects are asked to scan the vial with the stronger odor. Depending on their answer, the procedure was repeated at an adjusted concentration. […]

Molecules are shown by their SMILES.

`C[C@@]12C=CC[C@H]1[C@@H]1CCC3=CC(=O)CC[C@]3(C)[C@H]1CC2` [androstadienone, androsta-4,16-dien-3-one]: in the test on human subjects [1], the “intensity rating, OR7D4 RT/WM vs RT/RT subjects” value is given as “less intense”; the “intensity rating, RT/S84N subjects vs RT/RT controls” value is on record as “more intense”; the “reduction in odor intensity, OR7D4 WM/WM subjects” value is on record as “more marked”; the “intensity rating, RT/P79L subjects vs RT/RT controls” value is reported as “less intense”. For the same compound, in the test with human subjects [2], the “detection threshold, RT/S84N subjects vs RT/RT controls” value is listed as “higher”; the “detection threshold, RT/P79L subjects vs RT/RT subjects” value is “lower”; the “detection threshold, OR7D4 RT/WM vs RT/RT subjects” value is on record as “higher detection thresholds”.

`C[C@]12CCC(=O)C[C@@H]1CC[C@@H]1[C@@H]2CC[C@]2(C)C=CC[C@@H]12` [androstenone, 5α-androst-16-en-3-one]: in the test on human subjects [1], the “intensity rating, OR7D4 RT/WM vs RT/RT subjects” value is “less intense”; the “intensity rating, RT/S84N subjects vs RT/RT controls” value is listed as “more intense”; the “reduction in odor intensity, OR7D4 WM/WM subjects” value was “more marked”; the “intensity rating, RT/P79L subjects vs RT/RT controls” value is on record as “less intense”. In the test on human subjects [2], the “detection threshold, RT/S84N subjects vs RT/RT controls” value is listed as “higher”; the “detection threshold, RT/P79L subjects vs RT/RT subjects” value is “lower”; the “detection threshold, OR7D4 RT/WM vs RT/RT subjects” value is reported as “higher detection thresholds”. The “incidence of specific anosmia, OR7D4 RT/WM vs RT/RT subjects” value in the test with human subjects [2] (p<0.05, chi-square test) is given as “greater incidence”. Also, the “proportion of subjects anosmic, RT/P79L vs RT/RT subjects” value with human subjects [2] (p=0.018, chi-square analysis) was “lower”.
